What all share (format): cell-based, human
Assay [1] has as its system DU-145 (Prostate cancer cell line). The assay can be described thus: Anti-proliferative assay (Cell Titer-Glo), DU-145. The method, then: Cell culture & Reagents: All cell lines, used for the anti-proliferative screen, were obtained from American Type Culture Collection (ATCC). HeLa (Cervical cancer cell line), MCF-7 (Breast cancer cell line) and DU-145 (Prostate cancer cell line) were cultured in Dulbecco's modified Eagle's medium (DMEM, GIBCO), containing 10% fetal bovine serum (FBS; Life Technologies), penicillin and streptomycin (10,000 U/mL), at 37° C. and in 5% CO2. Cell Titer-Glo® Luminescent Cell Viability Assay kit (Cat No. G7573) was purchased from Promega to determine the number of viable cells in culture based on quantitation of the ATP present, which signals the presence of metabolically active cells.
Anti-Proliferative assay: For anti-proliferative screening, 2500 cells per well (For HeLa and DU-145 cell lines) and 5000 cells per well (for MCF-7 cell line) numbers of cells were seeded in a white opaque plate and incubated for 24 Hrs in 5% CO2 incubator at 37° C. After 24 Hrs, compound dilutions were prepared as per the required concentrations in cell culture medium (DMEM) and diluted compounds were added and incubated with cells for 72 Hrs at 37° C. in 5% CO2 incubator in the same 96 well-plate. After 72 Hrs, Cell Titer-Glo® reagent vial was reconstituted with 100 mL of Cell Titer Glo buffer and 100 μL of prepared reagent was added to each well. After incubating at room temperature for 30 minutes, luminescence was captured using luminescence plate reader (EnVision® Multilabel Plate Reader from Perkin Elmer). Generated data was exported to the excel file and data was analyzed using Graph Pad Prism to calculate IC50 value of the unknown inhibitor.
Compounds were screened against different cancer cell lines [HeLa, DU-145, MCF-7 and SKOV3] for anti-proliferative activity using luminescence based cell proliferation assay using Promega Glo kit are shown in FIG. 3.

The test system of assay [2] is HeLa (Cervical cancer cell line). The assay can be described thus: Anti-proliferative assay (Cell Titer-Glo), HeLa.
The test system of assay [3] is MCF-7 (Breast cancer cell line). The assay can be described thus: Anti-proliferative assay (Cell Titer-Glo), MCF-7.
For assay [4], the system named is SKOV3 (Ovarian cancer cells). The assay can be described thus: Anti-proliferative assay, SKOV3.
Where [5] appears, read: Table 1, reference compounds, read-out: IC50 DU-145 cells.

Read-outs that look alike come from different tables or passages of the source.

`O=C(CCCCCCC(=O)Nc1ccccc1)NO` [SAHA]: the IC50 in assay [1] (setting [5]) is 796 nM.
Turning to `CC(/C=C/C(=O)NO)=C\[C@@H](C)C(=O)c1ccc(N(C)C)cc1` [TSA, Trichostatin A], the IC50 in assay [2] (Table 1, reference compounds, read-out: IC50 HeLa cells) was 124 nM; in assay [3] (Table 1, reference compounds, read-out: IC50 MCF-7 cells), 153 nM; in assay [1] (setting [5]), 539 nM; in assay [4] (Table 1, reference compounds, read-out: IC50 SKOV3 cells) it was 242 nM.
For the compound `COc1ccc(C[C@H](N)C(=O)N[C@H]2[C@@H](O)[C@H](n3cnc4c(N(C)C)ncnc43)O[C@@H]2CO)cc1` [Puromycin], the IC50 worked out at 619 nM in assay [2] (Homo sapiens, HeLa, Table 1, reference compounds, read-out: IC50 HeLa cells); 387 nM in assay [2] (Homo sapiens, HeLa, Table 2, reference compounds section, read-out: HeLa IC50); 408 nM in assay [3] (Homo sapiens, MCF7, Table 1, reference compounds, read-out: IC50 MCF-7 cells); 254 nM in assay [3] (Homo sapiens, MCF7, Table 2, reference compounds section, read-out: MCF-7 IC50); 967 nM in assay [1] (Homo sapiens, DU-145, Table 1, reference compounds, read-out: IC50 DU-145 cells); 382 nM in assay [1] (Homo sapiens, DU-145, Table 2, reference compounds section, read-out: DU-145 IC50). The IC50 was 296 nM in assay [4] (Homo sapiens, SK-OV-3, Table 1, reference compounds, read-out: IC50 SKOV3 cells) and 296 nM in assay [4] (Homo sapiens, SK-OV-3, Table 2, reference compounds section, read-out: SKOV3 IC50).

(Values after US11072583B2, “Indole (sulfomyl) n-hydroxy benzamide derivatives as selective HDAC inhibitors” (COUNCIL OF SCIENTIFIC & INDUSTRIAL RESEARCH, priority 2017, dated 2021).)
